Results from patent US11149049B2, “Substituted nucleosides, nucleotides and analogs thereof” (JANSSEN BIOPHARMA, INC., priority 2017, dated 2021).
Like-named read-outs stand apart in the source and are kept apart here.

Experiments:
[1] = tested on: human β-coronavirus strain OC43; assay: Coronavirus antiviral assay (OC43); type: cell-based; conditions: Betacoronavirus 1, OC43, 120 h; HeLa or MRC-5 cells, five days, CellTiter-Glo; read-out: OC43CoV EC50
Method: (§1) The human β-coronavirus strain OC43 was purchased from ATCC (Manassas, Va.; item numbers VR-1558 and VR-740, respectively). 24 hours prior to dosing, HeLa human cervix epithelial cells (ATCC, CCL-2) or MRC-5 human lung fibroblast (ATCC, CCL-171) were plated in 96 well plates at a density of 1.5×10^5/ml in DMEM medium supplemented with 10% fetal bovine serum, 1% HEPES buffer, 1% Penicillin/Streptomycin and 1% non-essential amino acids (all Mediatech, Manassas, Va.). At the day of infection, serially diluted compounds were added to cells and incubated for 4 hours. After the end of the 4 hour pre-incubation period, cells were infected with either coronavirus strain OC43 or 229E. The virus inoculum was selected to cause 80-90% cytopathic effect. Infected cells were incubated for five days at 37° C., 5% CO2. To develop the assay, 100 μl media was replaced with 100 μl CellTiter-Glo® reagent (Promega, Madison, Wis.), and incubated for 10 min at room temperature. Luminescence was measured on a Victor X3 multi-label plate reader. Potential compound cytotoxicity was determined using uninfected parallel cultures.

[2] = Cytotoxicity in the coronavirus assay, uninfected parallel cultures; type: cell-based; conditions: human, read-out: OC43CoV CC50
Method: as §1

[3] = tested on: Dengue virus type 2 NG-C or Dengue virus type 4 H241; assay: Dengue antiviral assay (DENV); type: cell-based; conditions: Huh-7.5 cells, five to six days, CellTiter-Glo
Method: The Dengue virus type 2 strain New Guniea C (NG-C) and the Dengue virus type 4 strain H241 were purchased from ATCC (Manassas, Va.; item numbers VR-1584 and VR-1490, respectively). 24 hours prior to dosing, Huh-7.5 cells were plated in 96 well plates at a density of 1.5×10^5/ml in DMEM medium supplemented with 10% fetal bovine serum, 1% HEPES buffer, 1% Penicillin/Streptomycin and 1% non-essential amino acids (all Mediatech, Manassas, Va.). At the day of infection, serially diluted compounds were added to cells and incubated for 4 hours. After the end of the 4 hour pre-incubation period, cells were infected with either Dengue virus type 2 NG-C or Dengue virus type 4 H241. The virus inoculum was selected to cause 80-90% cytopathic effect in five to six days. Infected cells were incubated for five (NG-C) to six (H241) days at 37° C., 5% CO2. To develop the assay, 100 μl media was replaced with 100 μl CellTiter-Glo® reagent (Promega, Madison, Wis.), and incubated for 10 min at room temperature. Luminescence was measured on a Victor X3 multi-label plate reader. Potential compound cytotoxicity was determined using uninfected parallel cultures.

[4] = tested on: RSV replicon; assay: microbe, parasite or virus in culture; type: cell-based
[5] = Cell viability (CC50) in the RSV replicon assay; conditions: human, HeLa-derived cells containing the stable RSV replicon, CellTiter-Glo
[6] = Cytotoxicity in the DENV assay, uninfected parallel cultures; conditions: human, DENV CC50, uninfected Huh-7.5 parallel cultures
[7] = tested on: Ebola minigenome; assay: microbe, parasite or virus in culture; type: cell-based
[8] = tested on: Human rhinovirus 1B; assay: Rhinovirus antiviral assay (HRV1B); type: cell-based; conditions: Rhinovirus A, 96 h, read-out: HRV 1B EC50, HeLa-OHIO cells, 4 d, CellTiter-Glo
[9] = in vitro; conditions: human
[10] = Toxicity (CC50) in the HRV1B assay; conditions: human
[11] = tested on: Huh-7.5 cells; assay: Cytotoxicity in the DENV assay, uninfected parallel cultures; conditions: read-out: DENV CC50; uninfected Huh-7.5 parallel cultures
[12] = target: human rhinovirus 16 RNA polymerase (Human rhinovirus 16 (HRV-16), UniProt Q82122); type: biochemical; conditions: recombinant enzyme, tritiated NMP incorporation, 2.5 hours at 30° C.; read-out: HRV16pol IC50
Chain of human rhinovirus 16 RNA polymerase (Q82122 1694-2153 limits assumed): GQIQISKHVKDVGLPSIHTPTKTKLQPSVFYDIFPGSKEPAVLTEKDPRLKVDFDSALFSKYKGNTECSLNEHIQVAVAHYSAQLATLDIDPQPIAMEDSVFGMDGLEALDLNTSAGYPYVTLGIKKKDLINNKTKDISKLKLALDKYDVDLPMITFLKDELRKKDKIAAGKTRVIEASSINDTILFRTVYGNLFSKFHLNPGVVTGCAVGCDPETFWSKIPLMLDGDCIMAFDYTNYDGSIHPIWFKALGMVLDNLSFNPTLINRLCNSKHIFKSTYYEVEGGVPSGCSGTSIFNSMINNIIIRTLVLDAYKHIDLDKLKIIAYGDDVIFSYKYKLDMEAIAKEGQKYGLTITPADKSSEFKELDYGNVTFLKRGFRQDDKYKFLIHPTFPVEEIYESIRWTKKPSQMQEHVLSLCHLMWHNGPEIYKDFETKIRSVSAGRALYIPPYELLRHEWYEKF

[13] = target: hepatitis C virus RNA polymerase (Hepatitis C virus genotype 1a (isolate H77) (HCV), UniProt P27958); assay: HCV polymerase assay (HCVpol); type: biochemical; conditions: recombinant enzyme, tritiated NMP incorporation, 2.5 hours at 30° C.
Chain of hepatitis C virus RNA polymerase (P27958 2421-3011 limits assumed): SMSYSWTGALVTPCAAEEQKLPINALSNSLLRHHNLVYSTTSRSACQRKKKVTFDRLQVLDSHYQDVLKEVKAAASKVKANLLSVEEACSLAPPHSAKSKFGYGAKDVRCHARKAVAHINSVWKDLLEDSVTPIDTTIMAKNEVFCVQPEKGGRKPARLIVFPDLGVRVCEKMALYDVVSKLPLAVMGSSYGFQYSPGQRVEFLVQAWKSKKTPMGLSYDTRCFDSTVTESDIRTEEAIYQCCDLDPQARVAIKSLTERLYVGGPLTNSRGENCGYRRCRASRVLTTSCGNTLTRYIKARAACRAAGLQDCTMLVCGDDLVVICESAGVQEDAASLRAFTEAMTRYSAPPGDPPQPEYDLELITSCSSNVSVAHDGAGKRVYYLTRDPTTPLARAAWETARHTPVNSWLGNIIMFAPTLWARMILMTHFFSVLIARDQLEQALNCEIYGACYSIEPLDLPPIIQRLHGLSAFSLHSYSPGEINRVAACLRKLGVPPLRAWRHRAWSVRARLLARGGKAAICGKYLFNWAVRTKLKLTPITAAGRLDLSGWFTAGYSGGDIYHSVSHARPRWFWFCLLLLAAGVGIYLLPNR
Method: The enzyme activity of hepatitis C virus RNA polymerase (HCVpol) and human rhinovirus 16 RNA polymerase (HRV16pol) is measured as an incorporation of tritiated NMP into acid-insoluble RNA products. HCVpol and HRV16pol assay reactions contain 30-100 nM recombinant enzyme, 50-500 nM heteropolymeric RNA, 0.5 μCi tritiated NTP, 0.1-1 μM of other NTPs, in a standard reaction buffer containing MgCl2. Enzymatic reactions are incubated for 2.5 hours at 30° C., in the presence of increasing concentration of inhibitor. At the end of the reaction, the total RNA is precipitated with 10% TCA, and acid-insoluble RNA products are filtered on a size exclusion 96-well plate. After washing of the plate, scintillation liquid is added and radiolabeled RNA products are detected according to standard procedures with a Trilux Microbeta scintillation counter. The compound concentration at which the enzyme-catalyzed rate is reduced by 50% (IC50) is calculated by fitting the data to a non-linear regression (sigmoidal).

[14] = target: dengue virus NS5 polymerase domain (Dengue virus type 2, UniProt P14340); assay: Dengue polymerase assay (DENVpol); conditions: 100 nM recombinant enzyme, 3 hours at 30° C., mean of several independent experiments
Method: The enzyme activity of dengue virus NS5 polymerase domain (DENVpol, serotype 2, New Guinea C strain) was measured as an incorporation of tritiated NMP into acid-insoluble RNA products. DENVpol assay reactions contained 100 nM recombinant enzyme, 50 nM heteropolymeric RNA, about 0.5 μCi tritiated NTP, 0.33 μM of competing cold NTP, 40 mM HEPES (pH 7.5), 3 mM dithiothreitol, and 2 mM MgCl2. Standard reactions were incubated for 3 hours at 30° C., in the presence of increasing concentration of inhibitor. At the end of the reaction, RNA was precipitated with 10% TCA, and acid-insoluble RNA products were filtered on a size exclusion 96-well plate. After washing of the plate, scintillation liquid was added and radiolabeled RNA products were detected according to standard procedures with a Trilux Topcount scintillation counter. The compound concentration at which the enzyme-catalyzed rate was reduced by 50% (IC50) was calculated by fitting the data to a non-linear regression (sigmoidal).

[15] = human respiratory syncytial virus, 168 h, read-out: RSV EC50, HeLa-derived RSV replicon cells, 7 days, luciferase
[16] = Zaire ebolavirus, HEp-2, 48 h, read-out: EBOV EC50, HEp-2 cells, Ebola minigenome, 48 hours

Row | SMILES | EC50 [1] [nM] | CC50 at 5 days [2] [nM] | EC50 ([3]; Dengue virus, Huh7.5, 144 h) [nM] | EC50 [4, 15] [nM] | CC50 at 7 days [5] [nM] | CC50 [6] [nM] | EC50 [7, 16] [nM] | EC50 [8] [nM] | EC50 [3] [nM] | CC50 [9] [nM] | CC50 at 4 d [10] [nM] | CC50 [11] [nM] | EC50 ([7]; read-out: EBOV EC50, HEp-2 cells, Ebola minigenome, 48 hours) [nM] | EC50 ([4]; read-out: RSV EC50, HeLa-derived RSV replicon cells, 7 days, luciferase) [nM] | IC50 [12] [nM] | IC50 [13] [nM] | IC50 [14] [nM]
1 | CC(C)OC(=O)[C@@H](C)NP(=O)(OC[C@@]1(F)O[C@@](C#N)(c2ccc3c(N)ncnn23)[C@H](O)[C@@H]1O)Oc1ccccc1 (stereo partly drawn) [Compound 5, Isopropyl ((((2S,3S,4R,5R)-5-(4-aminopyrrolo[2,1-f][1,2,4]triazin-7-yl)-5-cyano-2-fluoro-3,4-dihydroxytetrahydrofuran-2-yl)methoxy)(phenoxy)phosphoryl)-D-alaninate] | 25300 | > 100000 | 7370 | 2740 | > 100000 | > 100000 |  |  |  |  |  |  |  |  |  |  | 
2 | CC(C)OC(=O)[C@H](C)NP(=O)(OC[C@@]1(F)O[C@@](C#N)(c2ccc3c(N)ncnn23)[C@H](O)[C@@H]1O)Oc1ccccc1 (stereo partly drawn) [Compound 6, Isopropyl ((((2S,3S,4R,5R)-5-(4-aminopyrrolo[2,1-f][1,2,4]triazin-7-yl)-5-cyano-2-fluoro-3,4-dihydroxytetrahydrofuran-2-yl)methoxy)(phenoxy)phosphoryl)-L-alaninate] | 1700 | > 100000 | 250 | 20 | 43000 | 78000 | 2500 | 4100 | 330 | > 100000 | > 100000 | 69000 |  |  |  |  | 
3 | C[C@H](NP(=O)(OC[C@@]1(F)O[C@@](C#N)(c2ccc3c(N)ncnn23)[C@H](O)[C@@H]1O)Oc1ccccc1)C(=O)OCC(C)(C)C (stereo partly drawn) [Compound 8, Neopentyl ((((2S,3S,4R,5R)-5-(4-aminopyrrolo[2,1-f][1,2,4]triazin-7-yl)-5-cyano-2-fluoro-3,4-dihydroxytetrahydrofuran-2-yl)methoxy)(phenoxy)phosphoryl)-L-alaninate] | 100 | > 50000 | 110 | 30 |  |  | 500 |  | 140 | > 100000 | 64000 |  | 800 | 26 |  |  | 
4 | CCC(CC)COC(=O)[C@@H](C)NP(=O)(OC[C@@]1(F)O[C@@](C#N)(c2ccc3c(N)ncnn23)[C@H](O)[C@@H]1O)Oc1ccccc1 (stereo partly drawn) [Compound 9, 2-Ethylbutyl ((((2S,3S,4R,5R)-5-(4-aminopyrrolo[2,1-f][1,2,4]triazin-7-yl)-5-cyano-2-fluoro-3,4-dihydroxytetrahydrofuran-2-yl)methoxy)(phenoxy)phosphoryl)-D-alaninate] | 25 | 34000 | 70 | 18 | 8100 | 12000 | 250 | 130 |  | ~50000 | 33000 |  |  |  |  |  | 
5 | CCCOC(=O)[C@H](C)NP(=O)(N[C@@H](C)C(=O)OCCC)OC[C@@]1(F)O[C@@](C#N)(c2ccc3c(N)ncnn23)[C@H](O)[C@@H]1O [Compound 10] | 2300 | > 50000 |  | 170 | > 100000 |  |  | 3100 |  |  | > 100000 |  |  |  |  |  | 
6 | CC(C)OC(=O)[C@@H](C)NP(=O)(OC[C@@]1(N=[N+]=[N-])O[C@@](C#N)(c2ccc3c(N)ncnn23)[C@H](O)[C@@H]1O)Oc1ccccc1 (stereo partly drawn) [Compound 11, Isopropyl ((((2R,3S,4R,5R)-5-(4-aminopyrrolo[2,1-f][1,2,4]triazin-7-yl)-2-azido-5-cyano-3,4-dihydroxytetrahydrofuran-2-yl)methoxy)(phenoxy)phosphoryl)-D-alaninate] | > 50000 | > 50000 |  | 1300 | 13600 |  |  | > 100000 |  |  | 59000 |  |  |  |  |  | 
7 | N#C[C@@]1(c2ccc3c(N)ncnn23)O[C@](F)(COP(=O)(O)OP(=O)(O)OP(=O)(O)O)[C@@H](O)[C@H]1O [Compound 12, ((2S,3S,4R,5R)-5-(4-Aminopyrrolo[2,1-f][1,2,4]triazin-7-yl)-5-cyano-2-fluoro-3,4-dihydroxytetrahydrofuran-2-yl)methyl tetrahydrogen triphosphate] |  |  |  |  |  |  |  |  |  |  |  |  |  |  | 130 | 400 | 1100
8 | N#C[C@@]1(c2ccc3c(N)ncnn23)O[C@](CF)(COP(=O)(O)OP(=O)(O)OP(=O)(O)O)[C@@H](O)[C@H]1O [Compound 13, ((2R,3S,4R,5R)-5-(4-Aminopyrrolo[2,1-f][1,2,4]triazin-7-yl)-5-cyano-2-(fluoromethyl)-3,4-dihydroxytetrahydrofuran-2-yl)methyl tetrahydrogen triphosphate] |  |  |  |  |  |  |  |  |  |  |  |  |  |  | 210 | > 10000 | > 10000
9 | N#C[C@@]1(c2ccc3c(N)ncnn23)O[C@@](COP(=O)(O)OP(=O)(O)OP(=O)(O)O)(N=[N+]=[N-])[C@@H](O)[C@H]1O [Compound 14, ((2R,3S,4R,5R)-5-(4-Aminopyrrolo[2,1-f][1,2,4]triazin-7-yl)-2-azido-5-cyano-3,4-dihydroxytetrahydrofuran-2-yl)methyl tetrahydrogen triphosphate] |  |  |  |  |  |  |  |  |  |  |  |  |  |  | 40 | 300 | 1100
10 | N#C[C@@]1(c2ccc3c(N)ncnn23)O[C@H](COP(=O)(O)OP(=O)(O)OP(=O)(O)O)[C@@H](O)[C@H]1O [Compound C2, reference compound] |  |  |  |  |  |  |  |  |  |  |  |  |  |  | 270 | 1000 | 3600
